From BindingDB's records for doi:10.1038/sj.bjp.0703341 (Friedrich-Schiller-University Jena, 2000)
“And” between values parts separate entries of the source, which are not always exact repeats. Identical values can stand only once.

Experiments:
[1] = target: 5-hydroxytryptamine receptor 6 (Rattus norvegicus, UniProt P31388)
[2] = target: T1, 5-hydroxytryptamine receptor 2C (Sus scrofa, UniProt G7ZKZ7)
T1 sequence (G7ZKZ7 whole entry): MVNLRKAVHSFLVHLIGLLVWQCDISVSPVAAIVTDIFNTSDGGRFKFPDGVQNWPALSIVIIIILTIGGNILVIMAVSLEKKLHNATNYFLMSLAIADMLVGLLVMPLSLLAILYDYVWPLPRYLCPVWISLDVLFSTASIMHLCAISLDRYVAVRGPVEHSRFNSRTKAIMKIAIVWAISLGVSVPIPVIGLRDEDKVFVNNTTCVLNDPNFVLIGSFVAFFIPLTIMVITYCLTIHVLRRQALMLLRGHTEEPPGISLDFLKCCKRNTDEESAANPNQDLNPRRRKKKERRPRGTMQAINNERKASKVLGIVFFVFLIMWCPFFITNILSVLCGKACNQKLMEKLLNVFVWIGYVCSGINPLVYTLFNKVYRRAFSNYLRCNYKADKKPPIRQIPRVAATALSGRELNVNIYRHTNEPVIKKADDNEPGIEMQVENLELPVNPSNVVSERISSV

[3] = target: 5-hydroxytryptamine receptor 7 (Rattus norvegicus, UniProt P32305)
[4] = target: 5-hydroxytryptamine receptor 2B (Rattus norvegicus, UniProt P30994)
Sequence of 5-hydroxytryptamine receptor 2B (P30994 whole entry): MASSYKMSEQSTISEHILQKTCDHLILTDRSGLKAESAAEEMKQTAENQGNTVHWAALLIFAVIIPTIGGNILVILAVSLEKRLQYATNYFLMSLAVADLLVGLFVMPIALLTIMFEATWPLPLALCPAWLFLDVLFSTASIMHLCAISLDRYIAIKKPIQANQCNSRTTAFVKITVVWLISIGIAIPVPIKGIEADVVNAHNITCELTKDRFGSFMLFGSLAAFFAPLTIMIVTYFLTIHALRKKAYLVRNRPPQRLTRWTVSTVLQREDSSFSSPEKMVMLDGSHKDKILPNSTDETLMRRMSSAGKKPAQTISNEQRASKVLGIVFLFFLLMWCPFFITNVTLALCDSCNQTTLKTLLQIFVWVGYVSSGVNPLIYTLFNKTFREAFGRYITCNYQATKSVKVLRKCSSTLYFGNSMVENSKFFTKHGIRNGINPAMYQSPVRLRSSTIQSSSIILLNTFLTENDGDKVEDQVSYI

Sequence of 5-hydroxytryptamine receptor 7 (P32305 whole entry): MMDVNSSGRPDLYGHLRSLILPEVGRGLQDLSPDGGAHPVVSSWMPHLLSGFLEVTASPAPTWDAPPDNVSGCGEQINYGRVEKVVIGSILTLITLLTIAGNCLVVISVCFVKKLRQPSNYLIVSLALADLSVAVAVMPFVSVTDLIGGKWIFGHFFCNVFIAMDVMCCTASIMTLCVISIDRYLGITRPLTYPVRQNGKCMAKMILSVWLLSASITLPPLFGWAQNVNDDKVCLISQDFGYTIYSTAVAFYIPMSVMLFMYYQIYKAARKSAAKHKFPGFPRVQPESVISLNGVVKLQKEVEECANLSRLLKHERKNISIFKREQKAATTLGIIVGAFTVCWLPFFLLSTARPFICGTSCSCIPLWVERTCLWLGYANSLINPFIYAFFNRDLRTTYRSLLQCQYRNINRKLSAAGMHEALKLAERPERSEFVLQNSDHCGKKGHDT
Sequence of 5-hydroxytryptamine receptor 6 (P31388 whole entry): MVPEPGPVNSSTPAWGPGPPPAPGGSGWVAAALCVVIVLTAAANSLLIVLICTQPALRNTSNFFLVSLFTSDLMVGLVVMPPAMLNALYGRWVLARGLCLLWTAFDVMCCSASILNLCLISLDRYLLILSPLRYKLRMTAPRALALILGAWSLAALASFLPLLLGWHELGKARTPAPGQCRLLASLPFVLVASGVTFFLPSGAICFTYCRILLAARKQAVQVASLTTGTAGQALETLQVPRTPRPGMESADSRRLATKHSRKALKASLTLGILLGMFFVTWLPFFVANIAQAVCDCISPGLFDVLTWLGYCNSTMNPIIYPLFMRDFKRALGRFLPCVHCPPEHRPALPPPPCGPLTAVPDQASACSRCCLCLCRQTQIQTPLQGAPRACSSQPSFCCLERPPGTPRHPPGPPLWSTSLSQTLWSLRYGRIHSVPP

| SMILES | Ki [1] | Ki [2] | Ki [3] | Ki [4] |
| --- | --- | --- | --- | --- |
| Clc1ccc2c(c1)C(N1CCNCC1)=Nc1ccccc1O2 | 6.31 nM | – | – | – |
| Cc1nc2sccn2c(=O)c1CCN1CCC(=C(c2ccc(F)cc2)c2ccc(F)cc2)CC1 | 39.8 nM | 2.51 nM | – | – |
| CN(C)CCC=C1c2ccccc2CCc2ccccc21 | 63.1 nM | – | 126 nM | – |
| CC[C@@H](CO)NC(=O)[C@@H]1C=C2c3cccc4c3c(cn4C)C[C@H]2N(C)C1 | 398 nM | 2.51 nM | – | – |
| CN(C)CC/C=C1\c2ccccc2Sc2ccc(Cl)cc21 | 3.16 nM | – | 5.01 nM | – |
| O=C(c1ccc(F)cc1)C1CCN(CCn2c(=O)[nH]c3ccccc3c2=O)CC1 [3-(2-{4-[(4-fluorophenyl)carbonyl]piperidin-1-yl}ethyl)-1,2,3,4-tetrahydroquinazoline-2,4-dione] | > 10000 nM | 100 nM | – | 3160 nM |
| OCCN1CCN(CCCN2c3ccccc3Sc3ccc(Cl)cc32)CC1 [4-[3-(2-chlorophenothiazin-10-yl)propyl]-1-piperazineethanol] | 15.9 nM | – | 25.1 nM | – |
| O=C(CCCN1CCC2(CC1)C(=O)NCN2c1ccccc1)c1ccc(F)cc1 [8-[4-(4-fluorophenyl)-4-oxidanylidene-butyl]-1-phenyl-1,3,8-triazaspiro[4.5]decan-4-one] | – | 1260 nM | – | – |
| CN1CCN(C2=Nc3ccccc3Oc3ccc(Cl)cc32)CC1 [13-chloro-10-(4-methylpiperazin-1-yl)-2-oxa-9-azatricyclo[9.4.0.0^{3,8}]pentadeca-1(11),3,5,7,9,12,14-heptaene] | 15.9 nM | – | 39.8 nM | – |
| CC(O)C(C)OC(=O)C1CC2c3cccc4c3c(cn4C(C)C)CC2N(C)C1 (stereo not drawn) [CAS_60634-51-7] | – | 7.94 nM | – | 6.31 nM |
| CN1C[C@@H](NS(=O)(=O)N(C)C)C[C@@H]2c3cccc4c3c(cn4C)C[C@H]21 [MESULERGINE] | 1580 nM | 1.58 nM | 6.31 nM | – |
| CN1C[C@H](CNC(=O)OCc2ccccc2)C[C@@H]2c3cccc4c3c(cn4C)C[C@H]21 [METERGOLINE] | 31.6 nM | 0.63 nM | – | – |
| CN1CCC(=C2c3ccccc3CCc3sccc32)CC1 [NSC_27400] | – | 7.94 nM | – | – |
| CSc1ccc2c(c1)C(N1CCN(C)CC1)Cc1ccccc1S2 (stereo not drawn) [methanesulfonic acid;1-methyl-4-(3-methylsulfanyl-5,6-dihydrobenzo[b][1]benzothiepin-5-yl)piperazine] | – | 25.1 nM | – | – |
| COC(=O)[C@@H]1[C@H]2C[C@H]3c4[nH]c5ccccc5c4CCN3C[C@@H]2CC[C@@H]1O [yohimbic acid methyl ester] | – | 1580 nM and > 10000 nM | – | 39.8 nM |
